{
  "source": "patent US20260224589A1",
  "about": "(priority 2023, published 2026)",
  "data": [
    {"system": "AsPC-1 cells", "test": "phospho-ERK HTRF assay in AsPC-1 cells, 4 h treatment", "format": "cell-based", "conditions": "Homo sapiens, ASPC1; AsPC-1, 4H; Table 1a class column; read-out: pERK IC50 activity range (*)", "units": {"IC50": "nM"}, "values": [
      {"smiles": "COc1c(C(=O)N(C)C)nn2c1CN(c1nc(OC[C@@]34CCCN3C[C@H](F)C4)nc3c1COC(c1c(F)c(N)cc(Cl)c1C(F)(F)F)C3)CCC2", "note": "(some centres unmarked) [compound 249]", "IC50": "101 to 500"},
      {"smiles": "CN(C)C(=O)c1nn2c(c1Cl)CN(c1nc(OC[C@@]34CCCN3C[C@H](F)C4)nc3c1CO[C@H](c1cc(N)cc(F)c1C(F)(F)F)C3)CCC2", "note": "[compound 402]", "IC50": "10 to 30"},
      {"smiles": "Cc1cc(N)cc([C@@H]2Cc3nc(OC[C@@]45CCCN4C/C(=C\\F)C5)nc(N4CCCn5nc(C(=O)N6CCC6)cc5C4)c3CO2)c1C(F)(F)F", "note": "[compound 403]", "IC50": "10 to 30"},
      {"smiles": "Cc1cc(N)cc([C@@H]2Cc3nc(OC[C@@]45CCCN4C/C(=C\\F)C5)nc(N4CCCn5nc(C(=O)N6CCCC6)cc5C4)c3CO2)c1C(F)(F)F", "note": "[compound 404]", "IC50": "10 to 30"},
      {"smiles": "Cc1cc(N)cc([C@@H]2Cc3nc(OC[C@@]45CCCN4C[C@H](F)C5)nc(N4CCCn5nc(C(=O)N(C)C)c(C)c5C4)c3CO2)c1C(F)(F)F", "note": "[compound 405]", "IC50": "10 to 30"},
      {"smiles": "Cc1c(C(=O)N(C)C)nn2c1CN(c1nc(OC[C@@]34CCCN3CC(=C(F)F)C4)nc3c1CO[C@H](c1cc(N)cc(F)c1C(F)(F)F)C3)CCC2", "note": "[compound 407]", "IC50": "10 to 30"},
      {"smiles": "CC#Cc1cc(N)cc([C@@H]2Cc3nc(OC[C@@]45CCCN4C[C@H](F)C5)nc(N4CCCn5nc(C(=O)N(C)C)cc5C4)c3CO2)c1C(F)(F)F", "note": "[compound 408]", "IC50": "10 to 30"},
      {"smiles": "CCc1c(C(=O)N(C)C)nn2c1CN(c1nc(OC[C@@]34CCCN3C[C@H](F)C4)nc3c1CO[C@H](c1cc(N)cc(Cl)c1C(F)(F)F)C3)CCC2", "note": "[compound 409]", "IC50": "10 to 30"}
    ]},
    {"system": "AsPC-1 cells", "test": "phospho-ERK HTRF assay in AsPC-1 cells, 4 h treatment", "format": "cell-based", "conditions": "Homo sapiens, ASPC1; AsPC-1, 4H; Table 1a; read-out: PERK IC50 (AsPC-1, 4H)", "units": {"IC50": "nM"}, "values": [
      {"smiles": "COc1c(C(=O)N(C)C)nn2c1CN(c1nc(OC[C@@]34CCCN3C[C@H](F)C4)nc3c1COC(c1c(F)c(N)cc(Cl)c1C(F)(F)F)C3)CCC2", "note": "(some centres unmarked) [compound 249]", "IC50": 113}
    ]},
    {"system": "AsPC-1 cells", "test": "phospho-ERK HTRF assay in AsPC-1 cells, 4 h treatment", "format": "cell-based", "conditions": "Homo sapiens, ASPC1; AsPC-1, 4h; Table 1b; read-out: PERK IC50 (AsPC-1, 4h)", "units": {"IC50": "nM"}, "values": [
      {"smiles": "Cc1c(C(=O)N(C)C)nn2c1CN(c1nc(OC[C@@]34CCCN3C/C(=C\\F)C4)nc3c1CO[C@H](c1cc(N)cc(Cl)c1C(F)(F)F)C3)CCC2", "note": "[compound 300, 5-((S)-7-(5-amino-3-chloro-2-(trifluoromethyl)phenyl)-2-(((S,Z)-2-(fluoromethylene)tetrahydro-1H-pyrrolizin-7a(5H)-yl)methoxy)-7,8-dihydro-5H-pyrano[4,3-d]pyrimidin-4-yl)-N,N,3-trimethyl-5,6,7,8-tetrahydro-4H-pyrazolo[1,5-a][1,4]diazepine-2-carboxamide]", "IC50": "< 10"},
      {"smiles": "CN(C)C(=O)c1cc2n(n1)CCCN(c1nc(OC[C@@]34CCCN3C/C(=C\\F)C4)nc3c1CO[C@H](c1cc(N)cc(Cl)c1C(F)(F)F)C3)C2", "note": "[compound 301, 5-((S)-7-(5-amino-3-chloro-2-(trifluoromethyl)phenyl)-2-(((S,Z)-2-(fluoromethylene)tetrahydro-1H-pyrrolizin-7a(5H)-yl)methoxy)-7,8-dihydro-5H-pyrano[4,3-d]pyrimidin-4-yl)-N,N-dimethyl-5,6,7,8-tetrahydro-4H-pyrazolo[1,5-a][1,4]diazepine-2-carboxamide]", "IC50": "< 10"},
      {"smiles": "Cc1cc(N)cc([C@@H]2Cc3nc(OC[C@@]45CCCN4C/C(=C\\F)C5)nc(N4CCCn5nc(C(=O)N(C)C)cc5C4)c3CO2)c1C(F)(F)F", "note": "[compound 302, 5-((S)-7-(5-amino-3-methyl-2-(trifluoromethyl)phenyl)-2-(((S,Z)-2-(fluoromethylene)tetrahydro-1H-pyrrolizin-7a(5H)-yl)methoxy)-7,8-dihydro-5H-pyrano[4,3-d]pyrimidin-4-yl)-N,N-dimethyl-5,6,7,8-tetrahydro-4H-pyrazolo[1,5-a][1,4]diazepine-2-carboxamide]", "IC50": "< 10"},
      {"smiles": "CN(C)C(=O)c1nn2c(c1Cl)CN(c1nc(OC[C@@]34CCCN3C/C(=C\\F)C4)nc3c1CO[C@H](c1cc(N)cc(F)c1C(F)(F)F)C3)CCC2", "note": "[compound 410]", "IC50": "< 10"},
      {"smiles": "CN(C)C(=O)c1cc2n(n1)CCCN(c1nc(OC[C@@]34CCCN3CC(=C(F)F)C4)nc3c1CO[C@H](c1cc(N)cc(Cl)c1C(F)(F)F)C3)C2", "note": "[compound 411]", "IC50": "< 10"},
      {"smiles": "CN(C)C(=O)c1nn2c(c1F)CN(c1nc(OC[C@@]34CCCN3C/C(=C\\F)C4)nc3c1CO[C@H](c1cc(N)cc(Cl)c1C(F)(F)F)C3)CCC2", "note": "[compound 412]", "IC50": "< 10"},
      {"smiles": "CCN(C)C(=O)c1cc2n(n1)CCCN(c1nc(OC[C@@]34CCCN3C/C(=C\\F)C4)nc3c1CO[C@H](c1cc(N)cc(C)c1C(F)(F)F)C3)C2", "note": "[compound 413]", "IC50": "< 10"},
      {"smiles": "Cc1c(C(=O)N(C)C)nn2c1CN(c1nc(OC[C@@]34CCCN3C[C@H](F)C4)nc3c1CO[C@H](c1cc(N)cc(Cl)c1C(F)(F)F)C3)CCC2", "note": "[compound 414]", "IC50": "< 10"},
      {"smiles": "Cc1cc(N)cc([C@@H]2Cc3nc(OC[C@@]45CCCN4C/C(=C\\F)C5)nc(N4CCCn5nc(C(=O)N(C)C)c(C)c5C4)c3CO2)c1C(F)(F)F", "note": "[compound 415]", "IC50": "< 10"},
      {"smiles": "Cc1cc(N)cc([C@@H]2Cc3nc(OC[C@@]45CCCN4CC(=C(F)F)C5)nc(N4CCCn5nc(C(=O)N(C)C)c(C)c5C4)c3CO2)c1C(F)(F)F", "note": "[compound 416]", "IC50": "< 10"},
      {"smiles": "Cc1c(C(=O)N(C)C)nn2c1CN(c1nc(OC[C@@]34CCCN3C/C(=C\\F)C4)nc3c1CO[C@H](c1cc(N)cc(F)c1C(F)(F)F)C3)CCC2", "note": "[compound 417]", "IC50": "< 10"},
      {"smiles": "CC#Cc1cc(N)cc([C@@H]2Cc3nc(OC[C@@]45CCCN4C[C@H](F)C5)nc(N4CCCn5nc(C(=O)N(C)C)c(C)c5C4)c3CO2)c1C(F)(F)F", "note": "[compound 419]", "IC50": "< 10"},
      {"smiles": "CC#Cc1cc(N)cc([C@@H]2Cc3nc(OC[C@@]45CCCN4C/C(=C\\F)C5)nc(N4CCCn5nc(C(=O)N6CCCC6)cc5C4)c3CO2)c1C(F)(F)F", "note": "[compound 420]", "IC50": "< 10"},
      {"smiles": "Cc1c(C(=O)N2CCCC2)nn2c1CN(c1nc(OC[C@@]34CCCN3C/C(=C\\F)C4)nc3c1CO[C@H](c1cc(N)cc(Cl)c1C(F)(F)F)C3)CCC2", "note": "[compound 421]", "IC50": "< 10"},
      {"smiles": "Nc1cc(Cl)c(C(F)(F)F)c([C@@H]2Cc3nc(OC[C@@]45CCCN4C/C(=C\\F)C5)nc(N4CCCn5nc(C(=O)N6CCCC6)c(Cl)c5C4)c3CO2)c1", "note": "[compound 422]", "IC50": "< 10"},
      {"smiles": "CC#Cc1cc(N)cc([C@@H]2Cc3nc(OC[C@@]45CCCN4C[C@H](F)C5)nc(N4CCCn5nc(C(=O)N(C)C)c(CC)c5C4)c3CO2)c1C(F)(F)F", "note": "[compound 423]", "IC50": "< 10"},
      {"smiles": "CC#Cc1cc(N)cc([C@@H]2Cc3nc(OC[C@@]45CCCN4C/C(=C\\F)C5)nc(N4CCCn5nc(C(=O)N(C)C)c(CC)c5C4)c3CO2)c1C(F)(F)F", "note": "[compound 424]", "IC50": "< 10"},
      {"smiles": "CCc1c(C(=O)N(C)C)nn2c1CN(c1nc(OC[C@@]34CCCN3C/C(=C\\F)C4)nc3c1CO[C@H](c1cc(N)cc(Cl)c1C(F)(F)F)C3)CCC2", "note": "[compound 425]", "IC50": "< 10"},
      {"smiles": "CC#Cc1cc(N)cc([C@@H]2Cc3nc(OC[C@@]45CCCN4C/C(=C\\F)C5)nc(N4CCCn5nc(C(=O)N(C)C)c(C)c5C4)c3CO2)c1C(F)(F)F", "note": "[compound 426]", "IC50": "< 10"},
      {"smiles": "CC#Cc1cc(N)cc([C@@H]2Cc3nc(OC[C@@]45CCCN4C/C(=C\\F)C5)nc(N4CCCn5nc(C(=O)N(C)C)c(Cl)c5C4)c3CO2)c1C(F)(F)F", "note": "[compound 427]", "IC50": "< 10"},
      {"smiles": "CC#Cc1cc(N)cc([C@@H]2Cc3nc(OC[C@@]45CCCN4C/C(=C\\F)C5)nc(N4CCCn5nc(C(=O)N(C)CC)cc5C4)c3CO2)c1C(F)(F)F", "note": "[compound 428]", "IC50": "< 10"},
      {"smiles": "CC#Cc1cc(N)cc([C@@H]2Cc3nc(OC[C@@]45CCCN4C/C(=C\\F)C5)nc(N4CCCn5nc(C(=O)N6CCCC6)c(C)c5C4)c3CO2)c1C(F)(F)F", "note": "[compound 429]", "IC50": "< 10"},
      {"smiles": "CC#Cc1cc(N)cc([C@@H]2Cc3nc(OC[C@@]45CCCN4C/C(=C\\F)C5)nc(N4CCCn5nc(C(=O)N6CCCC6)c(Cl)c5C4)c3CO2)c1C(F)(F)F", "note": "[compound 430]", "IC50": "< 10"}
    ]}
  ]
}
